From patent US20250243180A1, “TARGETED PROTEIN DEGRADATION” (Monte Rosa Therapeutics AG, priority 2023, published 2025)
Where two headings read alike, the source gives them in different places.

What was measured:
[1] = tested on: Caspase-1 activity; assay: Caspase-1 activity in human monocyte-derived macrophages, LPS/nigericin stimulation; format: cell-based; conditions: Macrophage, 24 h pre-treatment, LPS 3 h then 10 μM nigericin 1 h, read-out: Caspase-1 IC50 (NIG)
Description: (§1) Human monocytes were enriched and isolated from a buffy coat of healthy donor whole blood with a RosetteSep™ Human Monocyte Enrichment Cocktail (Cat.No. 15068, StemCell) and Ficoll-Plaque PLUS (Cat.No. H8889, Sigma). Monocytes were differentiated into macrophages by treatment with 100 ng/mL M-CSF for 6 days at 37° C., 5% CO2. Differentiated macrophages were seeded overnight (50,000 cells/well) in 100 µL of medium in a 96-well, white-bottom plate at 37° C., 5% CO2. Cells were treated with a concentration range of MGD for 24 hours prior to stimulation with nigericin. Macrophages were primed with […] LPS for 3 h followed by 1 h stimulation with 10 μM nigericin. Media of stimulated macrophages were collected and assayed for caspase 1 activity directly (Promega G9951), according to manufacturer's instructions. For IL-1β release assay, media of stimulated macrophages were collected and stored at −20° C., then thawed at 4° C. before assaying for IL-1β activity (Promega W6011), according to manufacturer's instructions.

[2] = tested on: IL-1β release; assay: IL-1β release in human monocyte-derived macrophages, LPS/nigericin stimulation; format: cell-based; conditions: Macrophage, 24 h pre-treatment, LPS 3 h then 10 μM nigericin 1 h, read-out: IL-1b IC50 (NIG)
Description: as §1

[3] = target: NEK7 (Homo sapiens (Human), UniProt Q8TDX7+Q96SW2); assay: NEK7 NanoBiT degradation assay in Cal51 NEK7 NanoBiT cell line; format: cell-based; conditions: Cal51 NEK7 NanoBiT cells, 24 hours; for Dmax: CAL-51
Sequence of NEK7 (Q8TDX7 whole entry): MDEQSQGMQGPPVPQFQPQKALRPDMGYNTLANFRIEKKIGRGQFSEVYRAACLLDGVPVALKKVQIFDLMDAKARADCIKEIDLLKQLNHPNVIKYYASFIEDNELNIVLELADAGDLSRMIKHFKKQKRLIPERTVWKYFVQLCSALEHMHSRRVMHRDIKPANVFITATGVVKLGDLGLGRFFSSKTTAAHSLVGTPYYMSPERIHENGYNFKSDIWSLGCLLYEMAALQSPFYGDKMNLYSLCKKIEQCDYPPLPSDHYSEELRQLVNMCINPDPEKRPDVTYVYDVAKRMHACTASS
Sequence of NEK7 (Q96SW2 whole entry): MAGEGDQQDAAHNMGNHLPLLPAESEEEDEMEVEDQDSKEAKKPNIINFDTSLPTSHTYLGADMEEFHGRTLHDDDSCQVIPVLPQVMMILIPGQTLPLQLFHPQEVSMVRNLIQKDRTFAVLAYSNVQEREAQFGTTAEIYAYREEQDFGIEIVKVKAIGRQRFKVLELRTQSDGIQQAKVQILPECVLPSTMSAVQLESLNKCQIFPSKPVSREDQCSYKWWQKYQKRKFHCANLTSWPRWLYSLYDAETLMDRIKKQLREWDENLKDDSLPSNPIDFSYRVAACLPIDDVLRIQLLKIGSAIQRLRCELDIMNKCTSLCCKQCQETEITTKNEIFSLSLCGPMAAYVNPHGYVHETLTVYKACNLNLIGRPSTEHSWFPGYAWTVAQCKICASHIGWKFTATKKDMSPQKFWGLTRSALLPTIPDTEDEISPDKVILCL
Sequence of NEK7 (Q16531 2-1140 partner): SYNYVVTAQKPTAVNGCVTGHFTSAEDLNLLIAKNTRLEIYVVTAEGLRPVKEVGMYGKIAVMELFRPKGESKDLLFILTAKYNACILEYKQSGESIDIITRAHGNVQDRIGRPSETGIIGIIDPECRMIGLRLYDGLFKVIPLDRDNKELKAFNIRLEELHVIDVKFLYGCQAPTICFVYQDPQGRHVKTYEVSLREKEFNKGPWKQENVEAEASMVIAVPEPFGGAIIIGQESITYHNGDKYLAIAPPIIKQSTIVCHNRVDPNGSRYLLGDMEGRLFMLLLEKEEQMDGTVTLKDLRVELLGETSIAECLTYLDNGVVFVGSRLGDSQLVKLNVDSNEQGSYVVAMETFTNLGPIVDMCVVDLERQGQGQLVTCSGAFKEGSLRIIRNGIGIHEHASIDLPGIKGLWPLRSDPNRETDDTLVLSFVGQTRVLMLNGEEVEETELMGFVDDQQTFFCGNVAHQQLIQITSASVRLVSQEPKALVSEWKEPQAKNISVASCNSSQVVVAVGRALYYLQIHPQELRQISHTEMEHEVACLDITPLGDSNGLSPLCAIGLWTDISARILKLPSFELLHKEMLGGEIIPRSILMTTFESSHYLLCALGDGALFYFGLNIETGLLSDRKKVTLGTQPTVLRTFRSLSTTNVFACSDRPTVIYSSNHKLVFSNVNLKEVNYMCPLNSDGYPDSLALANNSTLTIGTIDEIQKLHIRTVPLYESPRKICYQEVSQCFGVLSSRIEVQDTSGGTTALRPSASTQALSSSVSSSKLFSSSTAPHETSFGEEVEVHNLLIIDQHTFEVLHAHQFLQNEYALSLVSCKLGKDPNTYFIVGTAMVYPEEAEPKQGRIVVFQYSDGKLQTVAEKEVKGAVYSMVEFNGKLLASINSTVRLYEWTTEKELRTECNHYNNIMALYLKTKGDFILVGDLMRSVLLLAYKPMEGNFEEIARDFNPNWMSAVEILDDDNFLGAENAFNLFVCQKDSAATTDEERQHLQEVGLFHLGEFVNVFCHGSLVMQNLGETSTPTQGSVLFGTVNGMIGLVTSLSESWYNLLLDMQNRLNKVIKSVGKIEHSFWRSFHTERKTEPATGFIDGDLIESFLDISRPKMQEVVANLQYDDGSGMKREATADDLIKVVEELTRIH
Outline: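 EC50 comes from a 4-parameter fit of control-normalized luminescence. The luminescence reports HiBiT-NEK7 (endogenous knock-in) complemented by stably expressed LgBiT in Cal51 cells after 24 h compound exposure at 37 °C. Final concentrations ran 1 μM to 0.05 nM, with Endurazine substrate present in the medium throughout.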

[4] = target: CRBN-DDB1 (Homo sapiens (Human), UniProt Q96SW2); assay: Compound binding to CRBN by HTRF assay
Sequence of CRBN-DDB1 (Q96SW2 whole entry): as the sequence (Q96SW2 whole entry) above
Sequence of CRBN-DDB1 (Q16531 whole entry partner): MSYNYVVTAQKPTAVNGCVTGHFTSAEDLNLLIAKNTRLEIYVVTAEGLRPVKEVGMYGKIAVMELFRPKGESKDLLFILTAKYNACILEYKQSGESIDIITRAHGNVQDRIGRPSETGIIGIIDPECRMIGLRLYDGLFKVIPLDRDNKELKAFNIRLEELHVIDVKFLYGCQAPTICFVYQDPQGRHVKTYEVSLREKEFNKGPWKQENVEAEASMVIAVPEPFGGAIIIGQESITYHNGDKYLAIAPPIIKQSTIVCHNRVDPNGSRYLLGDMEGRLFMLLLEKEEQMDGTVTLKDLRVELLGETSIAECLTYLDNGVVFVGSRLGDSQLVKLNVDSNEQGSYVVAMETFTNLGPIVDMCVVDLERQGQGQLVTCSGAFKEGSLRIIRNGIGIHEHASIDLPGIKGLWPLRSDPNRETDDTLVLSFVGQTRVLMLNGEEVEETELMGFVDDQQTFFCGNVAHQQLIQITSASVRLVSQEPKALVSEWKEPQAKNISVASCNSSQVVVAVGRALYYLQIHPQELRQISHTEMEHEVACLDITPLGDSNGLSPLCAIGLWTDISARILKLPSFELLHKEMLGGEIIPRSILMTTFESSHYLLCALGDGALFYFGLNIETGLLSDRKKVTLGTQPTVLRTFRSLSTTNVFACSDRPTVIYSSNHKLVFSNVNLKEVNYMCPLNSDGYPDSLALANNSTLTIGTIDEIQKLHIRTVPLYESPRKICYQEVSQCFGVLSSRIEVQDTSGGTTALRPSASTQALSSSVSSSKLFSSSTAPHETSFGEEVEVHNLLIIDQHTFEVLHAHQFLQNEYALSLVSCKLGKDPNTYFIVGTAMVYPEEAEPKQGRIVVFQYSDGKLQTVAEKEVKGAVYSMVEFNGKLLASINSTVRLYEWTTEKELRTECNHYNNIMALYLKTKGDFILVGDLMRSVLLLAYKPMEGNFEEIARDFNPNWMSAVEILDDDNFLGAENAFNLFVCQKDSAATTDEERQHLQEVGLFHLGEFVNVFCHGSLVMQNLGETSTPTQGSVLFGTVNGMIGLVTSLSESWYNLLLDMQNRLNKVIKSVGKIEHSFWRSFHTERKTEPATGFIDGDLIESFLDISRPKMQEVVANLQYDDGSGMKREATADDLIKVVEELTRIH
Outline: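 Ki calculated via Cheng-Prusoff from geometric-mean EC50 values, after normalizing the HTRF ratio to lenalidomide (active) and DMSO (neutral) controls. Compounds (11 points, 1:3 steps) incubated 30 min at ambient temperature with CRBN-DDB1 2.5 nM, anti-His Tb cryptate and Cy5-thalidomide tracer 100 nM.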

[5] = NEK7 degradation, read-out: NanoBiT Dmax
[6] = NEK7 degradation, read-out: NanoBiT DC50

Structure (SMILES) | IC50 [1] | IC50 [2] | Dmax ([3]; read-out: NEK7 NanoBiT Dmax) | Dmax [3, 5] | DC50 ([3]; read-out: NEK7 NanoBiT DC50) | DC50 [3, 6] | EC50 [4] | EC50 ([4]; HTRF class, Cereblon binding)
CC(C)(C(=O)NCc1cc(Cl)c(C2CCC(=O)NC2=O)c(Cl)c1)c1ncc(C(F)F)cn1 (stereo not shown) [Compound 181, N-(3,5-dichloro-4-(2,6-dioxopiperidin-3-yl)benzyl)-2-(5-(difluoromethyl)pyrimidin-2-yl)-2-methylpropanamide] | 1.95 nM | 1.96 nM | 93% | > 75% | 5 nM | ≤ 100 nM | 190 nM | 100 to 1000 nM
CC(C)(C(=O)NCc1cc(Cl)c(C2CCC(=O)NC2=O)c(Cl)c1)c1ccc(F)cc1 (stereo not shown) [Compound 96] | 0.13 nM | 0.2 nM | 97% | > 75% | 1 nM | ≤ 100 nM | 80 nM | ≤ 100 nM
Cc1cnc(C(C)(C)C(=O)NCc2cc(Cl)c(C3CCC(=O)NC3=O)c(Cl)c2)cn1 (stereo not shown) [Compound 162] | 1.66 nM | 2.03 nM | 86% | > 75% | 13 nM | ≤ 100 nM | 290 nM | 100 to 1000 nM
CC(C)(C(=O)NCc1cc(Cl)c(C2CCC(=O)NC2=O)c(Cl)c1)c1ncccn1 (stereo not shown) [Compound 34] | 7.25 nM | 7.36 nM | 78% | > 75% | 28 nM | ≤ 100 nM | 140 nM | 100 to 1000 nM
CC(C)(C(=O)NCc1cc(Cl)c(C2CCC(=O)NC2=O)c(Cl)c1)c1ccc2ocnc2c1 (stereo not shown) [Compound 17] | – | 0.03 nM | 98% | > 75% | 0.1 nM | ≤ 100 nM | 20 nM | ≤ 100 nM
O=C1CCC(c2ccc(CNC(=O)C3(c4ccc(F)cc4)CCOCC3)cc2Cl)C(=O)N1 (stereo not shown) [Compound 138] | – | – | 88% | > 75% | 26 nM | ≤ 100 nM | 180 nM | 100 to 1000 nM
CC(C)(C(=O)NCc1cc(Cl)c(C2CCC(=O)NC2=O)c(Cl)c1)c1ccc(S(N)(=O)=O)c(F)c1 (stereo not shown) [Compound 39, N-(3,5-dichloro-4-(2,6-dioxopiperidin-3-yl)benzyl)-2-(3-fluoro-4-sulfamoylphenyl)-2-methylpropanamide] | – | – | 97% | > 75% | 2 nM | ≤ 100 nM | 50 nM | ≤ 100 nM
O=C1CCC(c2c(Cl)cc(CNC(=O)C3(c4ccccc4)CCC3)cc2Cl)C(=O)N1 (stereo not shown) [Compound 130, N-(3,5-dichloro-4-(2,6-dioxopiperidin-3-yl)benzyl)-1-phenylcyclobutane-1-carboxamide] | – | – | 96% | > 75% | 2 nM | ≤ 100 nM | 40 nM | ≤ 100 nM
Cn1ncc2ccc(C(C)(C)C(=O)NCc3cc(Cl)c(C4CCC(=O)NC4=O)c(Cl)c3)cc21 (stereo not shown) [Compound 78] | – | – | 97% | > 75% | 0.4 nM | ≤ 100 nM | 60 nM | ≤ 100 nM
Cc1cc(C(C)(C)C(=O)NCc2cc(Cl)c(C3CCC(=O)NC3=O)c(Cl)c2)no1 (stereo not shown) [Compound 145] | – | – | 86% | > 75% | 10 nM | ≤ 100 nM | 430 nM | 100 to 1000 nM
CC(C)(C(=O)NCc1cc(Cl)c(C2CCC(=O)NC2=O)c(Cl)c1)c1ncc(CC(F)(F)F)cn1 (stereo not shown) [Compound 195] | – | – | 63% | 50 to 75% | 138 nM | 100 to 1000 nM | 220 nM | 100 to 1000 nM
Cc1conc1C(C)(C)C(=O)NCc1cc(Cl)c(C2CCC(=O)NC2=O)c(Cl)c1 (stereo not shown) [Compound 201] | – | – | 93% | > 75% | 7 nM | ≤ 100 nM | 140 nM | 100 to 1000 nM
CC(C)(C(=O)NCc1ccc(C2CCC(=O)NC2=O)c(Cl)c1)c1ccc(S(N)(=O)=O)cc1 (stereo not shown) [Compound 56] | – | – | 67% | 50 to 75% | 244 nM | 100 to 1000 nM | 470 nM | 100 to 1000 nM
Cc1cnc(C(C)(C)C(=O)NCc2cc(Cl)c([C@@H]3CCC(=O)NC3=O)c(Cl)c2)nc1 (single isomer, unassigned) [Compound 154] | – | – | 89% | > 75% | 4 nM | ≤ 100 nM | 180 nM | 100 to 1000 nM
CC(C)(C(=O)NCc1cc(Cl)c(C2CCC(=O)NC2=O)c(Cl)c1)c1c(F)cccc1F (stereo not shown) [Compound 94] | – | 0.1 nM | 98% | > 75% | 1 nM | ≤ 100 nM | 70 nM | ≤ 100 nM
CCc1cnc(C(C)(C)C(=O)NCc2cc(Cl)c(C3CCC(=O)NC3=O)c(Cl)c2)cn1 (stereo not shown) [Compound 247] | – | – | 83% | > 75% | 20 nM | ≤ 100 nM | 120 nM | 100 to 1000 nM
CC(C)(C(=O)NCc1cc(F)c(C2CCC(=O)NC2=O)c(Cl)c1)c1ccc(OC(F)F)nc1 (stereo not shown) [Compound 267] | – | – | 94% | > 75% | 3 nM | ≤ 100 nM | 110 nM | 100 to 1000 nM
CC(C)(C(=O)NCc1cc(Cl)c(C2CCC(=O)NC2=O)c(Cl)c1)c1nc(C(F)F)no1 (stereo not shown) [Compound 219] | – | – | 72% | 50 to 75% | 47 nM | ≤ 100 nM | 80 nM | ≤ 100 nM
CC(C)(C(=O)NCc1ccc(C2CCC(=O)NC2=O)c(Cl)c1)c1ccccc1 (stereo not shown) [Compound 103] | – | – | 89% | > 75% | 20 nM | ≤ 100 nM | 180 nM | 100 to 1000 nM
CN(C)S(=O)(=O)c1ccc(C(C)(C)C(=O)NCc2cc(Cl)c(C3CCC(=O)NC3=O)c(Cl)c2)cc1 (stereo not shown) [Compound 58] | – | – | 92% | > 75% | 6 nM | ≤ 100 nM | 130 nM | 100 to 1000 nM
CC(C)(C(=O)NCc1cc(Cl)c(C2CCC(=O)NC2=O)c(Cl)c1)c1ccnc2ccccc12 (stereo not shown) [Compound 63] | – | – | 62% | 50 to 75% | 91 nM | ≤ 100 nM | 140 nM | 100 to 1000 nM
CC(C)(C(=O)NCc1cc(Cl)c(C2CCC(=O)NC2=O)c(Cl)c1)c1ccn2ccnc2c1 (stereo not shown) [Compound 55] | – | – | 97% | > 75% | 1 nM | ≤ 100 nM | 100 nM | 100 to 1000 nM
